One test concerns HeLa cells. In words: MTT cell viability/growth inhibition, HeLa. The test is classed as cell-based, human. Particulars: for cell viability: 10 μM, HeLa, mean of three independent experiments; for growth inhibition of EGFP-CARP-1 / EGFP-H2AX (1–35)-expressing cells: HeLa sublines vs EGFP-expressing counterparts. As to the method:
(§1) Routine maintenance and culture of MDA-MB-468 (lacking estrogen receptor; ER and having mutant p53) human triple-negative breast cancer (TNBC) cells, human cervical cancer HeLa, human kidney cancer UOK 262, non-small-cell lung cancer H1975, and HCC827 cells was carried out essentially as described previously. Generation and characterization of MDA-MB-468 cells expressing reduced CARP-1 was described previously. The stable sublines were generated by transfecting the MDA-MB-468 and Hela cells with the pcDNA3 vector, pcDNA3-CARP-1 wild-type (WT)-myc-His clone 6.1.2, pcDNA3-CARP-1(Δ600–650)-myc-His, pcDNA3-EGFP, pcDNA3-EGFP-H2AX (1–35), or pcDNA3-EGFP-CARP-1 (636–650) plasmids, followed by selection in the presence of 800 μg/mL neomycin using described methods. The cell lysates from wild-type, untransfected cells, neomycin-resistant pools, or individual sublines were then subjected to MTT-based viability, confocal, immunoprecipitation (IP), and Western blot (WB) analyses as below.
(§2) The cell growth inhibition was assessed using an MTT assay following the established protocols described by us previously.
(§3) Here, we utilized human TNBC MDA-MB-468 and human cervical cancer HeLa cells to conduct an MTT-based dose-response analysis using Adriamycin and CFM compounds. […] Since Adriamycin, CFM-4, and CFM-4.16 have molecular masses of 543.3, 404.9, and 440.3, respectively, we chose to use an equimolar dose of each compound in the MTT assays. […] Prior reports established that phosphorylation of H2AX at serine 139 (γ-H2AX) is involved in DNA damage repair and apoptotic signaling by ATM/ATR and JNKs, respectively. Next, the MDA-MB-468, HeLa, and the kidney cancer UOK 262 cells were treated with a 10 μM dose of the CFM-4.16 or Adriamycin for various time periods. The cell lysates from the control, untreated, and treated cells were analyzed by WB for expression of CARP-1, phospho-JNK1/2, phospho-H2AX, and poly ADP ribose polymerase (PARP) proteins. […] The H2AX activation is also indicative of DNA damage and involves pro-apoptotic JNKs. Our data in Figure 1C and Figure S1B,C (Supplementary Materials) also show activation of JNKs; however, a robust JNK activation is co-incident with H2AX phosphorylation following treatments with Adriamycin or CFM-4.16.
Figure 8 Ectopic expression of TAT-CARP-1 (636–650) peptide results in enhanced viabilities of Adriamycin-treated cells. MDA-MB-468 (A) or HeLa (B) cells were pre-incubated with 300 μg/mL indicated peptides for 72 h, followed by treatments with the noted dose and time of Adriamycin. Determination of viable/live cells was carried out using an MTT assay as described in Section 2. The bar charts in panels A and B represent means of three and two independent experiments, respectively; bars, SE. (C) Indicated cells were either pre-incubated with 6 μg/mL indicated peptides for 72 h or not (Control), followed by treatments with Adriamycin as noted. Cells were then processed for immunofluorescence staining for TAT-CARP-1 peptide (red), γH2AX (green), and DAPI (blue) as detailed in Section 2 and Figure S3 (Supplementary Materials). Insets in C show enlarged areas of respective photomicrographs to indicate presence of TAT-CARP-1 peptide and γH2AX in respective columns. The insets in the top and middle rows of the merge column show co-localization of TAT-CARP-1 peptide, and γH2AX (magnification: 250×).
Figure S7. Disruption of H2AX interaction with CARP-1 results in enhanced viabilities of CFM-4, CFM-4.16, or Adriamycin-treated cells in part due to reduced γH2AX and apoptosis. (A,B,C) Indicated HeLa cell lines were treated with DMSO (Control), noted dose and time of Adriamycin, CFM-4, or CFM-4.16 compounds. Determination of viable/live cells was carried out by MTT assay as in methods. The columns in bar charts in panels A, B, C represent means of three independent […]
experiments; bars, SE. […]

A further test relates to MDA-MB-468 cells. In words: MTT cell viability/growth inhibition, MDA-MB-468. The test is classed as cell-based, human. Particulars: for cell viability: 10 μM, MDA-MB-468, MTT, mean of three independent experiments; for growth inhibition of EGFP-CARP-1 / EGFP-H2AX (1–35)-expressing cells: MDA-MB-468 sublines vs EGFP-expressing counterparts. The procedure:
as §1, §2, §3
Figure 7 Disruption of H2AX interaction with CARP-1 results in enhanced viabilities of CFM-4-, CFM-4.16-, or Adriamycin-treated cells in part due to reduced apoptosis. (A,C,D) Indicated MDA-MB-468 cell lines were treated with DMSO (Control), or with the noted dose and time of Adriamycin, CFM-4, or CFM-4.16 compounds. Determination of viable/live cells was carried out by MTT assay as described in Section 2. (B,E,F) Cell lysates derived from vehicle DMSO (Control), or CFM-4-, CFM-4.16-, or Adriamycin-treated cells were added to the wells that had immobilized fluorogenic substrates of noted caspases. The fluorescence released from the activated caspase-dependent cleavage of respective substrate was detected by a plate reader at the excitation and emission wavelengths of 380 nm and 460 nm, respectively, as detailed in Section 2. The columns in bar charts in panels A, C, D and B, […] represent means of three and two independent experiments, respectively; bars, SE. For panels C and D, * p < 0.05, **p < 0.01 and *** p ≤ 0.001 relative to the respective EGFP vector subline. For panels E and F, *** p ≤ 0.05 relative to the respective EGFP vector subline.
Figure 8 Ectopic expression of TAT-CARP-1 (636–650) peptide results in enhanced viabilities of Adriamycin-treated cells. MDA-MB-468 (A) or HeLa (B) cells were pre-incubated with 300 μg/mL indicated peptides for 72 h, followed by treatments with the noted dose and time of Adriamycin. Determination of viable/live cells was carried out using an MTT assay as described in Section 2. […]

No end group written: not given here. HA = not defined here

For `COc1cccc2c1C(=O)c1c(O)c3c(c(O)c1C2=O)C[C@@](O)(C(=O)CO)C[C@@H]3O[C@H]1C[C@H](N)[C@H](O)[C@H](C)O1` [Adriamycin, doxorubicin, reference compound], the cell viability result in the test on HeLa cells and in the test with MDA-MB-468 cells was “inhibited viabilities of both the cell lines in a time-dependent manner” each time. Further, the “growth inhibition of CARP-1 (Δ600–650)-expressing cells” value is on record as “resistant to inhibition by CFM-4 or ADR” in the test on HeLa cells (HeLa CARP-1 (Δ600–650) vs WT CARP-1-expressing counterparts, mean of three experiments) and “resistant to inhibition by CFM-4 or ADR” with MDA-MB-468 cells (MDA-MB-468 CARP-1 (Δ600–650) vs WT CARP-1-expressing counterparts, MTT, mean of three experiments). Also, the “growth inhibition of EGFP-CARP-1 / EGFP-H2AX (1–35)-expressing cells” value in the test on HeLa cells (mean of three experiments) is reported as “resistant to inhibition by CFM-4.16 or ADR”; with MDA-MB-468 cells (MTT, mean of three experiments), “resistant to inhibition by CFM-4.16 or ADR”. The cell-growth inhibition result in the test with MDA-MB-468 cells (10 μM dose, MDA-MB-468, MTT dose-response, Figure S1A) is on record as “robust cell-growth inhibition”.
As for `O=C1N(Cc2ccccc2Cl)c2ccccc2C12NN=C(c1cccc(Cl)c1)S2` (stereo not drawn) [CFM-4.16], the cell viability entry in the test on HeLa cells and in the test on MDA-MB-468 cells was “inhibited viabilities of both the cell lines in a time-dependent manner” throughout. The “growth inhibition of EGFP-CARP-1 / EGFP-H2AX (1–35)-expressing cells” value in the test on HeLa cells (mean of three experiments) is “resistant to inhibition by CFM-4.16 or ADR”; in the test on MDA-MB-468 cells (MTT, mean of three experiments) it was “resistant to inhibition by CFM-4.16 or ADR”.
For the compound “EGFP-CARP-1 (636–650): EGFP-tagged fusion protein stably expressed in MDA-MB-468 and HeLa sublines (PKTMKVNDLRKELES; also: EGFP fusion kept, end not given here)”, the “growth inhibition of EGFP-CARP-1 / EGFP-H2AX (1–35)-expressing cells” value is on record as “resistant to inhibition by CFM-4.16 or ADR” with HeLa cells (mean of three experiments) and “resistant to inhibition by CFM-4.16 or ADR” in the test with MDA-MB-468 cells (MTT, mean of three experiments).
Turning to “EGFP-H2AX (1–35): EGFP-tagged fusion protein stably expressed in MDA-MB-468 and HeLa sublines (MSGRGKTGGKARAKAKSRSSRAGLQFPVGRVHRLL; also: EGFP fusion, end not given here; UniProt P16104 1-35, looked up, fragment)”, the “growth inhibition of EGFP-CARP-1 / EGFP-H2AX (1–35)-expressing cells” value in the test on HeLa cells (mean of three experiments) is on record as “resistant to inhibition by CFM-4.16 or ADR”; in the test with MDA-MB-468 cells (MTT, mean of three experiments), “resistant to inhibition by CFM-4.16 or ADR”.
Regarding “His-TAT-HA-CARP-1 (636–650): His-TAT-HA-tagged CARP-1 (636–650) peptide, >95% purity, commercially synthesized ({His-TAT-HA}-PKTMKVNDLRKELES; reading uncertain; UniProt Q8IX12 636-650, looked up, fragment)”, the “viability of Adriamycin-treated cells” value with HeLa cells (HeLa pre-incubated with 300 μg/mL peptide, 72 h, then Adriamycin, vs EGFP, mean of two experiments) is “moderate, statistically significant increase in viabilities”; in the test with MDA-MB-468 cells (MDA-MB-468 pre-incubated with 300 μg/mL peptide, 72 h, then Adriamycin, vs EGFP, MTT, mean of three experiments) it was “moderate, statistically significant increase in viabilities”. The “abrogation of Adriamycin-induced growth inhibition” value in the test on MDA-MB-468 cells (cancer cells, abstract) is given as “moderate, statistically significant abrogation of Adriamycin-induced growth inhibition”.

Values taken from publication PMC6406907, “A H2AX–CARP-1 Interaction Regulates Apoptosis Signaling Following DNA Damage” (Cancers, 2019).
